Measured values reported in patent US20040224953A1, “Fused bicyclic-substituted amines as histamine-3 receptor ligands” (priority 2003, published 2004).

Molecule C[C@@H]1CCCN1CCc1nc2cc(-c3ccc(C#N)cc3)ccc2o1 [Example 24E, 4-{2-[2-(2-(R)-methyl-pyrrolidin-1-yl)-ethyl]-benzooxazol-5-yl}-benzonitrile] has a melting point of 70 to 72 °C.
